The text below walks through data of patent publication US20040241244A1, “Neuronal growth enhancement by prostaglandin compositions and methods” (NexMed (Holdings) Inc., priority 2003, published 2004).

“And” between values parts separate entries of the source, which are not always exact repeats. Equal values may be shown once. Read-outs that look alike come from different tables or passages of the source.

In one assay the target is EP2 receptor (Mus musculus, UniProt Q62053). To be noted: read-out: affinity for the EP2 receptor; cited from earlier work.
EP2 receptor, sequence (Q62053 whole entry): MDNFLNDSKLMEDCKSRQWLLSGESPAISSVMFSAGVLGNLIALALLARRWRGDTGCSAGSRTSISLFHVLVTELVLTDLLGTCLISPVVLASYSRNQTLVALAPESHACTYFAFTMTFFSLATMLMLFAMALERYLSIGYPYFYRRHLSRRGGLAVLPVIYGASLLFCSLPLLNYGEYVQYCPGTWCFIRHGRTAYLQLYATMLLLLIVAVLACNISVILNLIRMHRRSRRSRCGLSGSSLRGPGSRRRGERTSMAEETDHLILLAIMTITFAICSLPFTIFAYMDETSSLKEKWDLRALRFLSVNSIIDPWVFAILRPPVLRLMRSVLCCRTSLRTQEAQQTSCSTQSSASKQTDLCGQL
Assay [1] concerns mouse neuroblastoma cells. The conditions noted are these: cited from earlier work.
Assay [2] relates to cultured mouse dorsal root ganglion neurons. To be noted: 20 micromolar, at 2 hours; cited from earlier work.
Assay [3] relates to mouse neuroblastoma cells. Description: Neurite extension in neuroblastoma cells in culture (Prasad, 1972). It counts as cell-based. The conditions noted are these: converted from micrograms/ml. An excerpt: “Neurite” is a broad term used to describe both axons and dendrites produced by a nerve cell; most commonly used to cover all cellular processes produced by neurons in culture (Kendrew, J., editor, The Encyclopedia of Molecular Biology, Blackwell Science Ltd., Oxford, 1994, page 709).

Assay [4] concerns dorsocaudal regions of rat major pelvic ganglia (DCR-MPG). Description: Neurite outgrowth in primary cultures of dorsocaudal regions of rat major pelvic ganglia. Format: cell-based, Sprague-Dawley rats. On the procedure: The dorsocaudal regions of 24 major pelvic ganglia (DCR-MPG) were dissected from Sprague-Dawley rats. Each sample was placed on a reduced-growth factor Matrigel coated glasscover slide in a culture dish filled with serum-free medium. […] The ganglia cultures were incubated at 37° C. in a humidified atmosphere with 5% CO2. Digital photographs were taken of neurite growth after 96 hours.
Growth Factor Reduced Matrigel (Passaniti, A., et al., Lab. Invest. 1992 67:518-528) was purchased from Becton Dickinson (Mountain View, Calif.). Cell culture grade PGE1 was purchased from Sigma Chemical. (St. Louis, Mo.). RPIM-1640 and other cell culture reagents were purchased from GIBCO Invitrogen Corp. (Grand Island, N.Y.).
Male Sprague-Dawley rats, two-months old, were used in this study. All animal care, treatments, and procedures were approved by the institutional Committee on Animal Research. The rats were sacrificed by intraperitoneal injection of sodium pentobarbital (50 mg/kg) followed by bilateral thoracotomy and the removal of the dorsocaudal region of the major pelvic ganglia (DCR-MPG).
Each rat supplied a pair of DCR-MPG; one was used as control and the contralateral ganglion was treated with PGE1. The DCR-MPG isolated from Sprague-Dawley rats were cultured attached to Matrigel-coated glass coverslips. The coverslips were used as the supporting platform to facilitate samples processing for histological staining and examination. Coverslips were coated as follows. Growth Factor Reduced Matrigel (Becton Dickinson, Mountain View, Calif.) was diluted 3-fold in serum-free RPMI-1640 in a 35-mm culture dish on ice. The diluted Matrigel was then spread onto cold sterilized glass coverslips using a sterilized glass slide as spreader. The coated coverslips were placed in 35-mm culture dishes and incubated at 37° C. for 1 hr to allow the Matrigel to solidify. Each freshly dissected DCR-MPG was rinsed in phosphate-buffered saline (PBS), cut into equal thirds, placed on top of Matrigel coated coverslips and covered by 50 μl cold Growth Factor Reduced Matrigel which had been kept in liquid form. After a 5-min incubation at 37° C. to allow the Matrigel to polymerize, 3 ml of serum-free RPMI 1640 medium supplemented with 1×penicillin-streptomycin-fungizone (Cell Culture Facility, University of California, San Francisco) was added. […] The ganglia cultures were maintained at 37° C. in a humidified atmosphere with 5% CO2.
After 2 to 3 days of incubation, the ganglia and outgrowing neurites were stained for nicotinamide adenine dinucleotide phosphate (NADPH) diaphorase as an indication of nitric oxide synthase (NOS) expression. The culture medium was removed from each culture and replaced with a fixative solution of 2% formaldehyde, 0.002% picric acid in 0.1 M phosphate buffer, pH 8.0. After 20 min of fixation, the tissue was rinsed three times, 10 min each, with phosphate buffer, pH 8.0. The tissue was then incubated with 0.1 mM NADPH, 0.2 mM nitroblue tetrazolium, 0.2% Triton X-100 in buffer for approximately 30 min at room temperature with constant microscopic monitoring for color development. When a deep blue color was detected for NADPH-diaphorase positive nerves, the reaction was terminated by washing the tissues with buffer three times, 10 min each. The coverslips containing the ganglia were then mounted onto glass slides using buffered glycerin as mounting medium.
Neurites were photographed using a professional DCS-420 digital camera (Eastman Kodak, Rochester, N.Y.) connected to an Olympus microscope and an Apple Macintosh PowerMac computer. All samples were photographed and the images were stored for later analysis. The digital images were analyzed using Chemilmager 4000 software (Alpha Innotech Corporation, San Leandro, Calif.) to determine the maximum length of the outgrowing neurites fibers.
Statistical analysis was performed using computer software from Primer of Biostatistics, 3rd ed. (Glantz SA, McGraw-Hill, Inc. New York, 1992). […]

Assay [5] relates to patients after nerve sparing RRP. To be noted: three months of intracavernous injections three times a week; patients completing treatment; cited from earlier work.

For the compound `CCCCC[C@H](O)/C=C/[C@H]1[C@H](O)CC(=O)[C@@H]1C/C=C\CCCC(=O)O` [PGE2, Prostaglandin E2], on EP2 receptor, the Kd was about 10 nM. Moreover, the “optimum concentration for neurite extension” value in assay [1] is listed as “same optimum concentration”. For the same compound, the neurite extension entry in assay [2] is reported as “significantly different from control”.
Regarding Prostaglandin E1 [PGE1], the “optimum concentration for neurite extension” value is “about 30 micromolar” in assay [3] and “about 10 micrograms/ml” in assay [1]. Further, the “Neurite Growth (Length of longest neurite), Mean” value in assay [4] (1 μM PGE1, 96 hours culture) is 168.00 μm; in assay [4] (10 μM PGE1, 96 hours culture), 229.33±10.7 μm and 229.33 μm; in assay [4] (20 μM PGE1, 96 hours culture), 244.00 μm; in assay [4] (30 μM PGE1, 96 hours culture), 250.29 μm; in assay [4] (60 μM PGE1, 96 hours culture), 138.00 μm; in assay [4] (100 μM PGE1, 96 hours culture), 112.00 μm. In assay [4] (30 μM PGE1), this compound displayed a fiber length induced of 250 ± 38.1 µm. Also, the “peak neurite growth (mean ± standard deviation)” value in assay [4] (30 μM PGE1) amounted to 250±63 micrometers. For the same compound, in assay [4] (60 μM, 100 μM), the “maximum neurite extension at high doses” value is reported as “smaller maximum neurite extension”. Moreover, the “effect on neurite outgrowth of NADPH positive cells” value in assay [4] (primary cultures, 1-100 μM) was “enhance neurite outgrowth”. Moreover, in assay [4] (tested at 1, 10, 20, 30, 60 or 100 μM), the “PGE1 concentration at which the maximum effect on neurite outgrowth was observed” value worked out at 30 µM. Also, the “patients reporting recovery of spontaneous erections sufficient for intercourse” value in assay [5] was 8 of the 12. In assay [1], the “optimum time of exposure” value is 3 to 5 days.
